In US20160206726A1, “IMMUNOTHERAPY” (priority 2013, published 2016):

Experiments:
LCLs (tumour B cells) [1] = experiment: Plasma stability of cyclic peptide in LCL model (IFN-γ T cell recognition after plasma treatment); type: in vitro ADME, human
Protocol: LCLs (tumour B cells) were incubated with or without a protease inhibitor cocktail (PIC) for 2 hrs at 37° C. […] These cells were incubated with peptide-specific T cells overnight and IFN-γ assayed for T cell recognition of the processed peptide.

LCL target cells = experiment: Comparison of the plasma stability of cyclic peptide and APEC in LCL model (IFN-γ T cell recognition after plasma treatment); type: in vitro ADME, human; conditions: no target cells
Protocol: (§1) These cells were incubated with peptide-specific T cells overnight and IFN-γ assayed for T cell recognition of the processed peptide.

[2] = tested on: SW620 cells (colorectal cell line); experiment: SW620 colorectal cell line pulsed with cyclic or linear peptide with or without protease inhibitor cocktail; IFN-γ assayed for T cell recognition; type: cell-based; conditions: 10 ug peptide
Protocol: SW620 cells (colorectal cell line) incubated with or without a protease inhibitor cocktail for 2 hrs at 37° C. […] These cells were incubated with peptide-specific T cells overnight and IFN-γ assayed for T cell recognition of the processed peptide.
As a control for this, T cells alone were treated with the cyclic peptide. T cells should not process the cyclic form of the peptide but would be able to present the linear form and therefore the level of IFN-γ produced in this control would account for the amount of linear peptide present in the vial of cyclic peptide.

LCLs (tumour B cells) [3] = experiment: LCL pulsed with cyclic or linear peptide with or without protease inhibitor cocktail; IFN-γ assayed for T cell recognition; type: cell-based; conditions: 10 ug peptide
Protocol: LCLs (tumour B cells) were incubated with or without a protease inhibitor cocktail for 2 hrs at 37° C. […] (SEQ ID No: 278). The protease cleavage sequence “FR” is recognised by Cathepsin B and the T cell epitope […] is restricted to HLA-A*0201. […] These cells were incubated with peptide-specific T cells overnight and IFN-γ assayed for T cell recognition of the processed peptide.

[4] = tested on: SW620 cells (colorectal cell line); experiment: Plasma stability of cyclic peptide in colorectal cancer model (IFN-γ T cell recognition after plasma treatment); type: in vitro ADME, human; conditions: no target cells
Protocol: as §1

healthy B cells = experiment: Healthy B cells pulsed with cyclic or linear peptide with or without protease inhibitor cocktail; IFN-γ assayed for T cell recognition; type: cell-based; conditions: 10 ug peptide
Protocol: LCLs (tumour B cells) or healthy B cells were incubated with or without a protease inhibitor cocktail for 2 hrs at 37° C. […] The amino acid sequence of the cyclic peptide was […] (SEQ ID No: 278). The protease cleavage sequence “FR” is recognised by Cathepsin B and the T cell epitope […] is restricted to HLA-A*0201. The cyclic peptide was obtained from JPT Peptide Technologies. These cells were incubated with peptide-specific T cells overnight and IFN-γ assayed for T cell recognition of the processed peptide.

[5] = protease inhibitor cocktail 2 hrs at 37° C

FRGGANLVPMVATVAA [cyclic peptide]
effect of protease inhibitor cocktail on response to plasma-treated peptide (LCLs (tumour B cells) [1]; LCLs pre-incubated with PIC, peptide treated 4 hrs with human plasma): there is a decrease when target cells were pre-incubated with the protease inhibitor cocktail
response of T cells alone labelled with the peptide, without and with serum treatment (LCLs (tumour B cells) [1]; T cells alone, no target cells): very small response to the peptide which then disappears upon treatment of the peptide with serum
response of T cells alone labelled with the peptide, without and with serum treatment (LCL target cells): very small response to the peptide which then disappears upon treatment of the peptide with serum
response with the protease inhibitors compared with T cells cultured with the cyclic peptide alone [2]: very similar to the level seen when T cells were cultured with the cyclic peptide alone
T cell recognition (IFN-γ) of pulsed target cells, with versus without protease inhibitors [2, 5]: much larger response to IFN-γ when cultured in the absence of the protease inhibitors
decrease in the T cell recognition in the presence of the protease inhibitors [2, 5]: ~65%
response with the protease inhibitors compared with T cells cultured with the cyclic peptide alone (LCLs (tumour B cells) [3]): very similar to the level seen when T cells were cultured with the cyclic peptide alone
decrease in the T cell recognition in the presence of the protease inhibitors (LCLs (tumour B cells) [3]; [5]): ~75%
T cell recognition (IFN-γ) of pulsed target cells, with versus without protease inhibitors (LCLs (tumour B cells) [3]; protease inhibitor cocktail 2 hrs at 37° C, peptide-specific T cells overnight): much larger response to IFN-γ when cultured in the absence of the protease inhibitors
response of T cells alone labelled with the peptide, without and with serum treatment [4]: very small response to the peptide which then disappears upon treatment of the peptide with serum
amount of IFN-γ with healthy B cells compared with LCL (healthy B cells): significantly decreased amount of IFN-γ compared to the LCL treated with the cyclic peptide
T cell recognition (IFN-γ) of pulsed healthy B cells, with versus without protease inhibitors (healthy B cells; [5]): little difference in the response
